Results from article PMC4792136, “A generic screening platform for inhibitors of virus induced cell fusion using cellular electrical impedance” (Scientific Reports, 2016).

Tests used:
[1] = test system: RSV; parameters: method as in earlier work; details: HEp-2 cells, MOI 0.2, 48 h, MTT; CPE data supplied by Biota Pharmaceuticals ref 35; cited from earlier work
[2] = biological target: T1, RSV F protein (Human respiratory syncytial virus A, UniProt P03420); experiment: recombinant F CEI fusion assay, 384-well; assay type: cell-based
T1 construct: expressed in transfected cells; host or cells: Cos7 cells (transiently transfected), co-plated with BsrT7 cells
Excerpt: (§1) Impedance assays were setup in parallel to microscopy based fluorescent protein cytoplasmic mixing and cell content mixing T7 driven fusion assays. For testing small molecule inhibitors see cell content mixing, T7 driven reporter fusion assay protocol for cell infection, transfection and plating method. All other steps were as listed below.
(§2) Cos7-G cells were transfected with the RSV F expression vector (pCICO-Fopt) in 6 well plates using lipofectamine LTX as per manufacturer’s instructions (Invitrogen) or infected with RSV (MOI of 2). Four hours post infection/transfection, cells were trypsinized and re-suspended to 8 × 10^5 cells/ml. E-Plates were pre-blanked and Cos7-G and Cos7-R cells were seeded together at a 1:1 ratio for a final cell density of 5 × 10^4 cells/well. Plates were placed into the SP station, incubated at 37 °C in 5% CO2 and impedance was recorded every 15 min over 72 h.
(§3) 384-well fusion assays were setup as per 96-well protocol with the following changes: Cos7 and BsrT7 cells were seeded at a final concentration of 1 × 10^4 cells/well. Compound titration was performed in a Biomek NX Laboratory Automation Workstation and added to a final volume of 25 μl/well. Luciferase activity was determined using an EnVision Multilabel reader (PerkinElmer).

[3] = test system: RSV; experiment: RSV CEI fusion assay, live virus, 96-well; assay type: cell-based, respiratory syncytial virus; details: for IC50: human respiratory syncytial virus, read-out: RSV CEI 96 IC50
Excerpt: as §1, §2
(§4) The protocol is an adaptation of that described by Bagai and Lamb[29]. Cos7 cells were transfected with a plasmid containing Renilla luciferase under T7 promoter control (pGL80-T7RL) and an RSV F expression vector. For live virus fusion assay, transfection media was removed after 2 h and replaced with SF media containing RSV (MOI of 2). Two h post infection (4 h post initial transfection) cells were trypsinized and re-suspended to 8 × 10^5 cells/ml. Compounds were serially diluted in SF Opti-MEM media and added to opaque bottom, white microtitre plates (Corning) at 50 μl/well along with 25 μl of both Cos7 and BsrT7 cells added to each well to obtain a final concentration of 5 × 10^4 cells/well. After 24 h, media was exchanged with 50 μl/well Opti-MEM media supplemented with 2% FBS and 8 ng/ml Enduren Live Cell Substrate (Promega). After 6 h at 37 °C in a humidified incubator supplemented with 5% CO2, the plates were read using a Lucy 2 luminometer with 1 sec integration time. Assays were performed in triplicate.

[4] = biological target: T1, RSV F protein; experiment: Cell content mixing T7 luciferase fusion assay, recombinant F, 384-well; assay type: cell-based
Protocol: as §4, §3

[5] = biological target: T1, RSV F protein; experiment: Cell content mixing T7 luciferase fusion assay, recombinant F, 96-well; assay type: cell-based
Protocol: as §4

[6] = biological target: T1, RSV F protein; experiment: recombinant F CEI fusion assay, 96-well; assay type: cell-based; details: cells transfected with noncoding empty vector (eV)
Excerpt: as §1, §2
The protocol is an adaptation of that described by Bagai and Lamb[29]. Cos7 cells were transfected with a plasmid containing Renilla luciferase under T7 promoter control (pGL80-T7RL) and an RSV F expression vector. For live virus fusion assay, transfection media was removed after 2 h and replaced with SF media containing RSV (MOI of 2). […] After 6 h at 37 °C in a humidified incubator supplemented with 5% CO2, the plates were read using a Lucy 2 luminometer with 1 sec integration time. […]

[7] = test system: RSV; experiment: Plaque-reduction neutralization (PRNT) assay, RSV; assay type: cell-based; details: human respiratory syncytial virus; RSV on vero cells; in Table S1 printed as ± followed by a range

T1 sequence (P03420 137-574): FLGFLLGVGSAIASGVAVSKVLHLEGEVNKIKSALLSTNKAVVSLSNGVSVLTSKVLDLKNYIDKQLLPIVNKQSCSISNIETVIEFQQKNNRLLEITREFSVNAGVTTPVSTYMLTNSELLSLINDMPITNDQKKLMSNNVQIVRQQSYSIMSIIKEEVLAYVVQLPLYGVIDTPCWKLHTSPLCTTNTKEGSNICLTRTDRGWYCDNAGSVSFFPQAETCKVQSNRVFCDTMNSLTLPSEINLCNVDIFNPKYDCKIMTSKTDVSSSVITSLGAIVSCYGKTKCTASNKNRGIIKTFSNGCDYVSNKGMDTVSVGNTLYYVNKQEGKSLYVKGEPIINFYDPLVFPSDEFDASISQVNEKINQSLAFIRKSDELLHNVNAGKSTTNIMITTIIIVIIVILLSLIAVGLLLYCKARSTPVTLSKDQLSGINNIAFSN
T1 sequence (P03420 26-109): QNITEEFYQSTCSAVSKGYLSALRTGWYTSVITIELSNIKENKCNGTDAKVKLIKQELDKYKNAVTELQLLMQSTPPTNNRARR

SMILES | CPE EC50 [1] [log10 M] | IC50 [2] [µM] | IC50 [3] [µM] | IC50 [4] [µM] | IC50 [5] [µM] | effect on cell impedance of control cells [6] | IC50 [7] [µM] | change in cell impedance of control cells ([3]; control (uninfected) cells)
O=C(c1ccc(F)cc1)N1CCN2C(=O)c3ccncc3C12c1ccc(Cl)cc1 (centres unmarked) [BTA-1] | -6.5 | 6.31 | 0.398 | 158 | 3.98 | – | – | –
O=C(c1ccoc1)N1CCN2C(=O)c3ccncc3[C@]12c1ccc(Cl)cc1 [BTA-2] | -7.9 | 0.251 | 0.02 | 2.51 | 0.158 | – | – | –
O=C(c1ccc(F)cc1)N1CCN2C(=O)c3cc[n+]([O-])cc3C12c1ccc(Cl)cc1 (centres unmarked) [BTA-3] | -6.8 | 1 | 0.2 | 31.6 | 2.51 | – | – | –
O=C(c1ccoc1)N1CCN2C(=O)c3cc[n+]([O-])cc3[C@]12c1ccc(Cl)cc1 [BTA-4] | -7.6 | 2.51 | 0.0398 | 7.94 | 1 | – | – | –
Cc1ocnc1C(=O)N1CCN2C(=O)c3ccncc3[C@@]21c1ccc(Cl)cc1 [BTA-5] | -6.6 | 2.51 | 0.501 | 79.4 | 12.6 | – | – | –
Cc1ocnc1C(=O)N1CCN2C(=O)c3ccncc3C21C1CCOCC1 (centres unmarked) [BTA-6] | -8.5 | 0.2 | 0.00501 | 1 | 0.0398 | – | – | –
O=C1c2ccncc2[C@@]2(c3ccc(Cl)cc3)N1CCN2C(=O)C1CC1 [BTA-7] | -5.8 | 12.6 | 0.794 | – | 39.8 | – | – | –
Cc1ccc(CCCO)c(NCc2ccc3nc(NCCCN4CCOCC4)n(Cc4nc(C)ccc4O)c3c2)c1 [TMC-353121] | – | – | 0.000794 | – | – | No effect on cell impedance | 0.0058 | No change in cell impedance
